Laboratory results reported in publication PMC7752915 (Cell Discovery, 2020).
Where a name gives a salt, the structure may show the parent alone. Read-outs that look alike come from different tables or passages of the source.

Columns and labels:
[1] = system: SARS-CoV-2; assay: separate or combined application of CQ and CCB in Vero E6 cells, qRT-PCR and NP immunofluorescence; type: cell-based; conditions: MOI 0.05, 24 h p.i.
[2] = system: COVID-19 patients with hypertension; assay: retrospective clinical investigation of hospitalized COVID-19 patients with hypertension as the only comorbidity; type: in vivo, human; conditions: for Admission to ICU / Invasive ventilation: number (%) of patients
[3] = system: SARS-CoV-2; conditions: for IC50: read-out: half maximal inhibitory concentration (IC50) of SARS-CoV-2 replication, viral RNA copy number in supernatant
[4] = system: SARS-CoV-2; type: cell-based; conditions: Vero E6 cells, MOI 0.05, 24 h p.i., viral titer in supernatant
[5] = cited from earlier work
[6] = system: SARS-CoV-2; assay: time-of-addition assay (full-time, entry, post-entry treatment) in Vero E6 cells; type: cell-based
[7] = cytotoxicity in Vero E6 cells, CCK-8 assay; conditions: African green monkey
[8] = system: SARS-CoV-2; assay: microbe, parasite or virus in culture; conditions: Severe acute respiratory syndrome coronavirus 2, Vero C1008, 24 h, read-out: half maximal inhibitory concentration (IC50) of SARS-CoV-2 replication
[9] = system: SARS-CoV-2; assay: in vitro
[10] = system: Vero E6 cells; assay: cytotoxicity in Vero E6 cells, CCK-8 assay; conditions: read-out: half cytotoxic concentration (CC50); Vero E6 cells, CCK-8 assay, 24 h
[11] = in vitro; conditions: African green monkey
[12] = Supplementary Table S2, by treatment regimen
[13] = Vero E6 cells, MOI 0.05, 24 h p.i., serial concentrations
[14] = Amlodipine n = 19, listed as Amlodipine
[15] = Vero E6 cells, MOI 0.05, 24 h p.i.

**Q.** Which “effect on virus replication, separate or combined application” value [1] does the source give for `CCN(CC)CCCC(C)Nc1ccnc2cc(Cl)ccc12` (stereo not shown) [CQ, chloroquine] here?
**A.** The value was “distinct reduction in virus replication”.

**Q.** With `COC(=O)C1=C(C)NC(C)=C(C(=O)OC)C1c1ccccc1[N+](=O)[O-]` [nifedipine] as the compound, how does the “case fatality rate (CFR)” value ([2]; COVID-19 patients with hypertension as only comorbidity, by antihypertensive drug received) read?
**A.** Its value is 14.3%.

**Q.** What about the “Fatal, n (%)” value [2, 12] of the same compound?
**A.** The value was 2 (14.3) n (%).

**Q.** With `C[C@H](N[C@@H](CCc1ccccc1)C(=O)O)C(=O)N1CCC[C@H]1C(=O)O.O.O` [enalaprilat dehydrate] as the compound, how does the “inhibition of SARS-CoV-2 replication (in words)” value (shortened to “inhibition”) [3, 13] read?
**A.** Its value is “did not show any significant inhibition effects”.

**Q.** Which “inhibition” value [3, 13] does the source give for `CCOC(=O)[C@H](CCc1ccccc1)N[C@@H](C)C(=O)N1CCC[C@H]1C(=O)O` [enalapril maleate] here?
**A.** Its value is “did not show any significant inhibition effects”.

**Q.** With `CCOC(=O)C1=C(COCCN)NC(C)=C(C(=O)OC)C1c1ccccc1Cl` (stereo not shown) [amlodipine besylate] as the compound, how does the “anti-SARS-CoV-2 activity by plaque assay (in words)” value [4] read?
**A.** Its value is “confirmed by plaque assay”.

**Q.** And the Cmax ([5]; volunteers, 5 mg of amlodipine besylate)?
**A.** Its Cmax is ~ 4 ng/mL.

**Q.** What about the “Fatal, n (%)” value [2, 12] of the same compound?
**A.** Its value is 0 n (%).

**Q.** And the “Survival, n (%)” value [2, 12]?
**A.** The value was 19 (100) n (%).

**Q.** And the “Fatal (outcome)” value ([2]; Table 1, number (%) of patients, Amlodipine n = 19)?
**A.** Its value is 0.

**Q.** And the “Admission to ICU” value ([2]; Amlodipine n = 19)?
**A.** Its value is “none”.

**Q.** What about the Invasive ventilation ([2]; Amlodipine n = 19) of the same compound?
**A.** The Invasive ventilation was “none”.

**Q.** What about the “Admission to ICU” value [2, 14] of the same compound?
**A.** The value was 0.

**Q.** And the Invasive ventilation [2, 14]?
**A.** Its Invasive ventilation is 0.

**Q.** What does the source list for `NCCOB(c1ccccc1)c1ccccc1` [2ABP, 2-aminoethyl diphenylborinate]?
**A.** stage of virus infection inhibited [6]: mainly inhibit virus infection at a stage after virus entry; CC50 at 24 h [7]: > 200 µM; IC50 [8]: 24.2 µM; selectivity ratio [9]: > 8.26; inhibition of SARS-CoV-2 replication (in words) [3]: significantly inhibited virus replication in a concentration-dependent manner

**Q.** Which results are given for `COC(=O)C1=C(C)NC(C)=C(C(=O)O[C@@H]2CCCN(Cc3ccccc3)C2)[C@@H]1c1cccc([N+](=O)[O-])c1.Cl` [benidipine HCI]?
**A.** stage of virus infection inhibited ([6]; Vero E6 cells, MOI 0.05, 24 h p.i., qRT-PCR, western blot, immunofluorescence): mainly inhibit virus infection at a stage after virus entry; CC50 [10]: > 100 µM; anti-SARS-CoV-2 activity by plaque assay (in words) [4]: confirmed by plaque assay; Cmax ([5]; volunteers, 8 mg of benidipine HCI): ~ 4 ng/mL; effect on virus replication, separate or combined application [1]: distinct reduction in virus replication; selective index (SI = CC50/IC50) ([3]; Vero E6 cells): > 26.25; IC50 [3, 15]: 3.81 µM

**Q.** For `COCCOC(=O)C1=C(C)NC(C)=C(C(=O)OC/C=C/c2ccccc2)C1c1cccc([N+](=O)[O-])c1` (stereo not shown) [cilnidipine], which IC50 [8] is on record?
**A.** Its IC50 is 11.6 µM.

**Q.** What about the Cmax ([5]; human, in vivo, 20 mg) of the same compound?
**A.** Its Cmax is 16.5 ng/mL.

**Q.** What about the CC50 at 24 h [11] of the same compound?
**A.** The CC50 at 24 h was over 100 µM.

**Q.** What about the selectivity ratio at 24 h [9] of the same compound?
**A.** The selectivity ratio at 24 h was over 8.64.

**Q.** With `COC(=O)C1=C(C)NC(C)=C(C(=O)OCCN(C)Cc2ccccc2)C1c1cccc([N+](=O)[O-])c1` (stereo not shown) [nicardipine HCI, nicardipine HCl] as the compound, how does the CC50 at 24 h [7] read?
**A.** The CC50 at 24 h was over 100 µM.

**Q.** What about the IC50 [8] of the same compound?
**A.** Its IC50 is 13.3 µM.

**Q.** What about the Cmax ([5]; volunteers, 60 mg nicardipine hydrochloride) of the same compound?
**A.** Its Cmax is 58.4 ng/mL.

**Q.** And the selectivity ratio at 24 h [9]?
**A.** Its selectivity ratio at 24 h is over 7.51.

**Q.** For `CC(=O)OCOC(=O)CN(CC(=O)OCOC(C)=O)c1ccccc1OCCOc1ccccc1N(CC(=O)OCOC(C)=O)CC(=O)OCOC(C)=O` [BAPTA-AM, 1,2-bis(2-aminophenoxy)ethane-N,N,N′,N′-tetraacetic acid tetrakis(acetoxymethyl ester)], which CC50 [10] is on record?
**A.** Its CC50 is 81.3 µM.

**Q.** What about the “selective index (SI = CC50/IC50)” value ([3]; Vero E6 cells) of the same compound?
**A.** The value was 5.83.

**Q.** And the “inhibition” value [3, 13]?
**A.** The value was “significantly inhibited virus replication in a concentration-dependent manner”.

**Q.** And the IC50 [3, 15]?
**A.** The IC50 was 13.9 µM.

**Q.** For `CCCCc1nc(Cl)c(CO)n1Cc1ccc(-c2ccccc2-c2nn[nH]n2)cc1` [losartan potassium], which “inhibition” value [3, 13] is on record?
**A.** Its value is “did not show any significant inhibition effects”.

**Q.** For `CCCCC(=O)N(Cc1ccc(-c2ccccc2-c2nnn[nH]2)cc1)[C@H](C(=O)O)C(C)C` [valsartan], which “inhibition” value [3, 13] is on record?
**A.** Its value is “did not show any significant inhibition effects”.
